Measurements from patent US7253318B2, “Benzyloxy derivatives as MAOB inhibitors” (Hoffman-La Roche Inc., priority 2004, dated 2007).

Key:
human MAO-B = target: T1, human MAO-B (Homo sapiens, UniProt P27338); assay: MAO-B enzymatic activity, spectrophotometric assay (Amplex Red, tyramine substrate) on membranes of transfected EBNA cells; format: biochemical; conditions: membranes of EBNA cells transfected with human MAO-B cDNA, 30 min preincubation at 37° C., pH 7.4
T1 construct: expressed in transfected cells; host or cells: EBNA cells (transient transfection), membrane preparation
T1 sequence (P27338 1-520): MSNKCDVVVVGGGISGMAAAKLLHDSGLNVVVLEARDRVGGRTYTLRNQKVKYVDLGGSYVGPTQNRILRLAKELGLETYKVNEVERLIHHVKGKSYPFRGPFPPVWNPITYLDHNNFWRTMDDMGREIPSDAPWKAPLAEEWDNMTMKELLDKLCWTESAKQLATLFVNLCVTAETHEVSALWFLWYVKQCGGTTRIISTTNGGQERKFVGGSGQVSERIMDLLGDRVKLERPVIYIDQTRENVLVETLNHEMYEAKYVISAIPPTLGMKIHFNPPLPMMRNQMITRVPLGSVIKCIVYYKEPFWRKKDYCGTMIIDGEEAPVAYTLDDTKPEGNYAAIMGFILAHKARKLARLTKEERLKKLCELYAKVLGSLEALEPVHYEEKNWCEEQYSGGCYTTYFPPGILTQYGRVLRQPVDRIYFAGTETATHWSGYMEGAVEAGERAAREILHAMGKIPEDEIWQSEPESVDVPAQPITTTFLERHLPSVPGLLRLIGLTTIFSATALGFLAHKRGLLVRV
Method: (§1) The cDNA's encoding human MAO-A and MAO-B were transiently transfected into EBNA cells using the procedure described by Schlaeger and Christensen [Cytotechnology 15:1-13 (1998)]. After transfection, cells were homogenised by means of a Polytron homogenizer in 20 mM Tris HCl buffer, pH 8.0, containing 0.5 mM EGTA and 0.5 mM phenylmethanesulfonyl fluoride. Cell membranes were obtained by centrifugation at 45,000×g and, after two rinsing steps with 20 mM Tris HCl buffer, pH 8.0, containing 0.5 mM EGTA, membranes were eventually re-suspended in the above buffer and aliquots stored at −80° C. until use.
(§2) MAO-A and MAO-B enzymatic activity was assayed in 96-well-plates using a spectrophotometric assay adapted from the method described by Zhou and Panchuk-Voloshina [Analytical Biochemistry 253:169-174 (1997)]. Briefly, membrane aliquots were incubated in 0.1 M potassium phosphate buffer, pH 7.4, for 30 min at 37° C. with or without various concentrations of the compounds. After this period, the enzymatic reaction was started by the addition of the MAO substrate tyramine together with 1 U/ml horse-radish peroxidase (Roche Biochemicals) and 80 μM N-acetyl-3,7,-dihydroxyphenoxazine (Amplex Red, Molecular Probes). The samples were further incubated for 30 min at 37° C. in a final volume of 200 μl and absorbance was then determined at a wavelength of 570 nm using a SpectraMax plate reader (Molecular Devices). Background (non-specific) absorbance was determined in the presence of 10 μM clorgyline for MAO-A or 10 μM L-deprenyl for MAO-B.
(§3) IC50 values were determined from inhibition curves obtained using nine inhibitor concentrations in duplicate, by fitting data to a four parameter logistic equation using a computer program.

human MAO-A = target: T2, human MAO-A (Homo sapiens, UniProt P21397); assay: MAO-A enzymatic activity, spectrophotometric assay (Amplex Red, tyramine substrate) on membranes of transfected EBNA cells; format: biochemical; conditions: membranes of EBNA cells transfected with human MAO-A cDNA, 30 min preincubation at 37° C., pH 7.4
T2 construct: expressed in transfected cells; host or cells: EBNA cells (transient transfection), membrane preparation
T2 sequence (P21397 1-527): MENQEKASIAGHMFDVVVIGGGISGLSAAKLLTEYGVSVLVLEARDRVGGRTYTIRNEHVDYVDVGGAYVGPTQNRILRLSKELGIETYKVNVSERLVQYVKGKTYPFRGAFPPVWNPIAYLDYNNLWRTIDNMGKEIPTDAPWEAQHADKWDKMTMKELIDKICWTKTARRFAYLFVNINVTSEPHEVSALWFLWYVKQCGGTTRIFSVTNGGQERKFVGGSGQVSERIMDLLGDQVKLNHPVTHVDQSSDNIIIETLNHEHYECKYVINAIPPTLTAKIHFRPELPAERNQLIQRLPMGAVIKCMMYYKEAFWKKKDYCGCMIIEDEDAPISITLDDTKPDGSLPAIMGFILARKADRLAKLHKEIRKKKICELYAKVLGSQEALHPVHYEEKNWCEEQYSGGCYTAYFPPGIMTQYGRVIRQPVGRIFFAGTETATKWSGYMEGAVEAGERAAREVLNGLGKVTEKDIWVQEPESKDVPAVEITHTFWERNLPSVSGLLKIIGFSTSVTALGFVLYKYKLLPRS
Method: as §1, §2, §3

Compound | IC50 (human MAO-B) [µM] | IC50 (human MAO-A) [µM]
CCC(Oc1ccc(OCc2cccc(F)c2)cc1)C(=O)NC (racemic) [Example 17, (RS)-2-[4-(3-Fluoro-benzyloxy)-phenoxy]-N-methyl-butyramide] | 0.056 | > 10
CCC(Oc1ccc(OCc2ccc(C#N)cc2)cc1)C(=O)NC (racemic) [Example 19, (RS)-2-[4-(4-Cyano-benzyloxy)-phenoxy]-N-methyl-butyramide] | 0.074 | > 10
CNC(=O)COc1ccc(OCc2ccccc2)cc1 [Example 2, 2-(4-Benzyloxy-phenoxy)-N-methyl-acetamide] | 0.052 | > 10
CNC(=O)COc1ccc(OCc2ccccc2F)cc1 [Example 5, 2-[4-(2-Fluoro-benzyloxy)-phenoxy]-N-methyl-acetamide] | 0.081 | > 9
NC(=O)OCCc1ccc(OCc2cccc(F)c2)cc1 [Example 24, Carbamic acid 2-[4-(3-fluoro-benzyloxy)-phenyl]-ethyl ester] | 0.068 | > 10
CNC(=O)OCc1ccc(OCc2cccc(F)c2)cc1 [Example 26, Methyl-carbamic acid 4-(3-fluoro-benzyloxy)-benzyl ester] | 0.089 | > 10
NC(=O)COCc1ccc(OCc2cccc(F)c2)cc1 [Example 27, 2-[4-(3-Fluoro-benzyloxy)-benzyloxy]-acetamide] | 0.051 | > 10

Stronger by IC50 (human MAO-B), values ahead:

IC50 (human MAO-B) [µM] | IC50 (human MAO-A) [µM] | Compound
0.031 | > 10 | CNC(=O)C(C)Oc1ccc(OCc2cccc(F)c2)cc1 (racemic) [Example 11, (RS)-2-[4-(3-Fluoro-benzyloxy)-phenoxy]-N-methyl-propionamide]
0.015 | > 10 | CNC(=O)C(C)Oc1ccc(OCc2cccc(Cl)c2)cc1 (racemic) [Example 12, (RS)-2-[4-(3-Chloro-benzyloxy)-phenoxy]-N-methyl-propionamide]
0.031 | > 10 | CNC(=O)C(C)Oc1ccc(OCc2ccc(C#N)cc2)cc1 (racemic) [Example 14, (RS)-2-[4-(4-Cyano-benzyloxy)-phenoxy]-N-methyl-propionamide]
0.028 | > 10 | CCC(Oc1ccc(OCc2cccc(Cl)c2)cc1)C(=O)NC (racemic) [Example 18, (RS)-2-[4-(3-Chloro-benzyloxy)-phenoxy]-N-methyl-butyramide]
0.009 | > 10 | CNC(=O)C(C)Oc1ccc(OCc2cccc(Cl)c2)cc1 (single isomer, unassigned) [Example 13, (S or R)-2-[4-(3-Chloro-benzyloxy)-phenoxy]-N-methyl-propionamide]
0.028 | 2.86 | CNC(=O)COc1ccc(OCc2ccc(C#N)cc2)cc1 [Example 3, 2-[4-(4-Cyano-benzyloxy)-phenoxy]-N-methyl-acetamide]
0.012 | 2.44 | CNC(=O)COc1ccc(OCc2ccc(Cl)cc2)cc1 [Example 4, 2-[4-(4-Chloro-benzyloxy)-phenoxy]-N-methyl-acetamide]
0.021 | > 10 | CNC(=O)COc1ccc(OCc2cccc(F)c2)cc1 [Example 6, 2-[4-(3-Fluoro-benzyloxy)-phenoxy]-N-methyl-acetamide]
0.009 | 5.4 | CNC(=O)COc1ccc(OCc2ccc(F)cc2)cc1 [Example 7, 2-[4-(4-Fluoro-benzyloxy)-phenoxy]-N-methyl-acetamide]
0.044 | > 10 | NC(=O)CCOc1ccc(OCc2cccc(F)c2)cc1 [Example 23, 3-[4-(3-Fluoro-benzyloxy)-phenoxy]-propionamide]
